In data set [1] the test system is pyramidal neurons of the prefrontal cortex. The data set can be described thus: Evoked inhibitory postsynaptic currents (eIPSCs) in acute prefrontal cortex slices. The data set is classed as cell-based, mouse. The settings on record: 5 μM in the presence of canrenone (10 μM). As to the method: 300‐μm‐thick transverse slices comprising the medial prefrontal cortex (mPFC) area were prepared from 7‐ to 8‐week‐old C57Bl/6 mice as described previously (Teng et al, 2013; Agarwal et al, 2014). All recordings were performed in cortical layer V projection neurons. The bath solution consisted of oxygenated artificial cerebrospinal fluid (ACSF) containing NaCl 126 mM, KCl 3 mM, NaH2PO4 1.25 mM, MgSO4 1 mM, NaHCO3 26 mM, CaCl2 2 mM, glucose 10 mM, and the pH 7.2 adjusted with NaOH. Spontaneous GABAergic inhibitory postsynaptic currents (sIPSC) and evoked GABAergic inhibitory postsynaptic currents (eIPSC) were recorded at a holding potential of −70 mV in the presence of 6‐cyano‐7‐nitroquinoxaline‐2,3‐dione (CNQX, 10 μM) and DL‐2‐amino‐5‐phosphonovaleric acid (D‐APV, 50 μM). Glass pipettes were filled with the solution containing: KCl 140 mM, MgCl2 2 mM, CaCl2 1 mM, Na2GTP 0.5 mM, Na2ATP 4 mM, EGTA 10 mM, HEPES 10 mM. Patches with a series resistance of > 25 MΩ, a membrane resistance of < 0.8 GΩ, or leak currents of > 150 pA were excluded. Biphasic rectangular electric pulses (10 ms, 100–300 μA) were applied to layer I of the prelimbic area of mPFC through another glass pipette filled with ACSF. Synaptic currents were acquired at 20 kHz and filtered at 6 kHz, with a Digidata 1440 ADC‐converter coupled to a Multiclamp 700B amplifier (Molecular Devices, USA). […]

The target in a further data set is T1, ERBB4_1-685 dimers (Homo sapiens, UniProt Q15303).
T1 sequence (Q15303 26-685) 1: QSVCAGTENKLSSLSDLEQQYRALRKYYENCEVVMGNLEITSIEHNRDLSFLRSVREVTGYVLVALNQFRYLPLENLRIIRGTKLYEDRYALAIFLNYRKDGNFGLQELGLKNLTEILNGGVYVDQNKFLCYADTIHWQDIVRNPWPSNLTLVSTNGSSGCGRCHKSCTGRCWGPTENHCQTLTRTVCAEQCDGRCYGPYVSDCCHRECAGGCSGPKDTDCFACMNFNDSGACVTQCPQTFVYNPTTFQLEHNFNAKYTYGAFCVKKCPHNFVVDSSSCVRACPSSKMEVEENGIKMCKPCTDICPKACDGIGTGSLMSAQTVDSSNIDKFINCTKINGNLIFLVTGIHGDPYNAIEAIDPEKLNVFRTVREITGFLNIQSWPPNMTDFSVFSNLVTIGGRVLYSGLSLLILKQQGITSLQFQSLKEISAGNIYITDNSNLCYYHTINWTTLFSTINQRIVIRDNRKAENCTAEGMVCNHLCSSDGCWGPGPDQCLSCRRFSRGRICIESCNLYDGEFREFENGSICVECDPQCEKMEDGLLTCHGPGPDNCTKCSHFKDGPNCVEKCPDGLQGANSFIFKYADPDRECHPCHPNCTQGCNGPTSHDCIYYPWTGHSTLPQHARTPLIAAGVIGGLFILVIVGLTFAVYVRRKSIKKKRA
T1 sequence (Q15303 26-685) 2: T1 sequence (Q15303 26-685) 1
The data set can be described thus: Truncated ERBB4 (amino acids 1-685) dimerization split TEV assay. The settings on record: PC12 cells, 10 ng/ml EGFld.

The target of data set [2] is ERBB2-NTEV-tevS-GV + ERBB2-CTEV (Homo sapiens, UniProt P04626). The data set can be described thus: ERBB dimerization split TEV assay ERBB2/ERBB2. The data set is classed as cell-based. The note with it: 10 ng/ml EGFld. An excerpt: Gateway recombination cloning (Life Technologies) was applied for generating plasmids. Each ORF cloned was PCR‐amplified using the Pwo proofreading DNA polymerase (Roche) and BP‐recombined into the pDONR/Zeo plasmid (Life Technologies) to yield an entry vector, which was control‐digested using BsrGI to release the insert, and sequence‐verified. The following human ORFs were cloned using cDNA image clones ordered from Source BioScience: ERBB4 transcript variant JM‐a/CYT‐1 (Accession: BC112199), PIK3R1 (BC094795), GRB2 transcript variant 1 (BC000631), SHC1 transcript variant 2 (BC014158), STAT5A (BC027036), and SRC transcription variant 1 (BC051270). For EGFR, ERBB2, and ERBB3, entry vectors were obtained from the human CCSB kinase collection available from Addgene (Johannessen et al, 2010). Entry vectors were LR‐recombined into split TEV destination vectors [either pcDNA_attR1‐ORF‐attR2‐NTEV‐tevS‐GV‐2xHA_DEST or pTag4C_attR1‐ORF‐attR2‐CTEV‐2xHA_DEST, plasmids were described in detail before (Wehr et al, 2006)] to yield expression vectors, which were control‐digested using BsrGI. The plasmids for Nrg1 type I β1a and rat Nrg1 type III β1a have been described before (Wehr et al, 2006).

A further data set deals with Nrg1-tg and wt mice. The data set can be described thus: Prepulse inhibition (PPI). Format: in vivo, mouse. The protocol: For behavioral testing, age‐matched male mice (8–16 weeks) on C57Bl/6 background that constitutively overexpress the 2xHA‐tagged Nrg1 type III β1a isoform (Nrg1‐tg) under the control of the mouse Thy1.2 promoter (Velanac et al, 2012) and their wild‐type (wt) littermates as controls were used. Animals were group‐housed in the same ventilated sound‐attenuated rooms under a 12‐h light/12‐h dark schedule (lights on at 8:00 am) at an ambient temperature of 21°C with food and water available ad libitum. One week prior to experiments, mice were separated into single cages and habituated to the experimental rooms. To minimize the influence of the circadian rhythm on drug actions, the treatment groups were analyzed at balanced time points during the light phase. […] All animal experiments were conducted in accordance with NIH principles of laboratory animal care and were approved by the Government of Lower Saxony, Germany, in accordance with the German Animal Protection Law.
Treatment was continued throughout the behavioral analysis period. To avoid injection‐induced stress prior to behavioral testing, mice were injected in the afternoon, after the entire cohort has completed the behavioral paradigm.
The startle response was measured using a two test cabinet (SR‐LAB, San Diego Instruments) using a protocol as described in Brzózka et al (2010).

Details of data set [3]: method as in Wu et al, 2012. The note with it: ref Wu et al, 2012; cited from earlier work.
On the set-up of data set [4]: method as in Zhou et al, 2011; Rimmele et al, 2013. The settings on record: acute administration; ref Zhou et al, 2011; Rimmele et al, 2013; cited from earlier work.
[5] abbreviates: 50 mg/kg s.c. daily for 3 weeks and throughout phenotyping, vs vehicle.
Where [6] appears, read: before vs after chronic treatment, 50 mg/kg s.c. daily.

In general, IC50 refers to the concentration that inhibits the measured activity by half.

ERBB2-NTEV-tevS-GV + ERBB2-CTEV, sequence (P04626 23-1255): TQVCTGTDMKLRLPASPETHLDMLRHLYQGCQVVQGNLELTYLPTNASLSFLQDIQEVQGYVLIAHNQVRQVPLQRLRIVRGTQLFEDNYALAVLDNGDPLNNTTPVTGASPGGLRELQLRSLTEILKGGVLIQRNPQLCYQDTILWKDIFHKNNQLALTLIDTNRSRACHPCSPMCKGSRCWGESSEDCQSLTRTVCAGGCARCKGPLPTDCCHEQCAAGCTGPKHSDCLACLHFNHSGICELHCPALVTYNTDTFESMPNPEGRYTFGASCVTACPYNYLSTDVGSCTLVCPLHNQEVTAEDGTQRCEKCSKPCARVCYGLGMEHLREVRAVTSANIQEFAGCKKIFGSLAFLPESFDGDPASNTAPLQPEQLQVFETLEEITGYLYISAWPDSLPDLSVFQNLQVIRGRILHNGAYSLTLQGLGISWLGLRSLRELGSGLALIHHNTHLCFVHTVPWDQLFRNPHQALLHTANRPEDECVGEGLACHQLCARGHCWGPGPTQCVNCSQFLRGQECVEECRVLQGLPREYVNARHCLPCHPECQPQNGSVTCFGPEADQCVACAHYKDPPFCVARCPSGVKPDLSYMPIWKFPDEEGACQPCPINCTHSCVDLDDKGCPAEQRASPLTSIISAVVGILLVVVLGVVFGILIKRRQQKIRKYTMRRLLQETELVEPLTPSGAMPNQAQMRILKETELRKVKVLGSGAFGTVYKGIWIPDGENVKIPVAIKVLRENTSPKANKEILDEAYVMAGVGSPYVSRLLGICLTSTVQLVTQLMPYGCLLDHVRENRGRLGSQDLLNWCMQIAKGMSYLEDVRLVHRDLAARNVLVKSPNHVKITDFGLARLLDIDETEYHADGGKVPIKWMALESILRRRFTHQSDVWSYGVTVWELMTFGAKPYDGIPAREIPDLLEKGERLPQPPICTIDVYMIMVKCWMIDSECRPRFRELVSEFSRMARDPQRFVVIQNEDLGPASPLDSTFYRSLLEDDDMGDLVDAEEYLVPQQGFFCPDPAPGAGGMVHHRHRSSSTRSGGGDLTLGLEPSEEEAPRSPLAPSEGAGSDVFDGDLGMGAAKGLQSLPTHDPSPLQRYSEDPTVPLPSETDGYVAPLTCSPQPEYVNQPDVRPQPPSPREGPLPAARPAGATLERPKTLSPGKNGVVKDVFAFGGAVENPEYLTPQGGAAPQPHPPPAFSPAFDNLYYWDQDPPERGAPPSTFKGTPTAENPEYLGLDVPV
ERBB2-NTEV-tevS-GV + ERBB2-CTEV, sequence (P04626 23-1255): as above
Procedure for ERBB4_1-685 dimers: Individually re‐screened candidates were validated using a dose–response assay. PC12 cells were batch‐transfected as described in the section “Transfection of cells”, manually plated, and incubated for 24 h at 37°C and 5% CO2. Candidate small molecules were prepared in a series of dilutions using DMSO as diluent and ranging from 0.0001 to 100 μM at final concentrations, thus covering at least five orders of magnitude. Candidate dilutions were added, followed by the addition of 10,000 Nrg1‐expressing cells in 100 μl volume 30 min later. Cells were lysed in 40 μl Passive Lysis Buffer and analyzed in a Dual Luciferase Assay. Data were analyzed in Excel and GraphPad Prism. For single‐culture assays that used EGFld as stimulus, 100 μl assay medium containing EGFld (f.c. 10 ng/ml) was administered. […] Dose–response assays were run in six replicates per concentration and repeated at least two times. Data are shown as mean, and error bars represent SEM.

Regarding `CC(=O)S[C@@H]1CC2=CC(=O)CC[C@]2(C)[C@H]2CC[C@@]3(C)[C@@H](CC[C@@]34CCC(=O)O4)[C@H]12` [Spironolactone], the eIPSC amplitude result in data set [1] is recorded as “significantly increased”. Further, the “inhibitory effect on dimerization of truncated ERBB4” value against ERBB4_1-685 dimers is recorded as “no inhibitory effect”. The IC50 in data set [2] came out at 13.1 µM. In the data set on Nrg1-tg and wt mice (setting [5]), the “PPI in Nrg1-tg mice, four-arm study” value is “significantly enhanced” and the “PPI in wt mice, four-arm study” value was “did not influence PPI”. In the data set on Nrg1-tg and wt mice (setting [6]), the “PPI in Nrg1-tg mice, pilot two-arm study” value is recorded as “significantly improved” and the “PPI in wt controls, pilot two-arm study” value is given as “had no effect”. The “motivation and curiosity in mice” value in data set [3] is “increase motivation and curiosity”. Also, the “memory retrieval in healthy human volunteers” value in data set [4] is listed as “reduced memory retrieval”.

(Values after paper PMC5653977 (EMBO Molecular Medicine, 2017).)
